Test results taken from patent publication US20110039721A1, “METHOD FOR PREDICTION ABOUT CARCINOGENICITY OF SUBSTANCE IN RODENT” (Chemicals Evaluation and Research Institute, priority 2007, published 2011).
Like-named read-outs stand apart in the source and are kept apart here.

Tests used:
[1] = tested on: rodent; details: cited from earlier work
[2] = tested on: mRNA expressed from the genes (A) to (D) in rat liver; assay: Behavior of genes (mRNA expression level, oligo-DNA microarray) in rat liver after 28-day oral administration; assay type: in vivo
Method: A test solution was prepared by dissolving each of the carcinogens and the non-carcinogens shown in Tables 2 to 6 in the corresponding solvent shown in Tables 2 to 6. Each of the thus prepared test solutions and the solvents used for the preparation was administered by oral gavage to rats in each group. As the rats, male rats (F344 SPF rats) at 5 weeks of age obtained from Charles River Laboratories Japan, Inc. were used. The animals were divided into groups, each containing four individuals. The volume of the solvent administered to the vehicle control group was set to the same volume as that of the test solution administered to the carcinogen administration group or the non-carcinogen administration group. The administration of the test solution or the solvent was performed once daily for 28 days. Apiece was excised from the liver of each of the rats after a lapse of 28 days from the initiation of the administration, and the total RNA was extracted and purified.
The expression level of mRNA was compared between each of the chemical substance administration groups and the corresponding vehicle control group, and genes that satisfy the requirements described in (A) to (D) were selected, respectively.
The case where the expression level of mRNA in the carcinogen administration group or the non-carcinogen administration group is 1.5 times or more or 1/1.5 or less of the expression level of the corresponding mRNA expressed in the control group was determined to be significant. In this connection, the determination as to whether or not the change is significant was performed by taking into consideration the direction of increase or decrease in the expression level. In the case where the direction of increase or decrease is different as compared with the case where another carcinogen was administered, the change was determined to be not significant.

[3] = (C), Unigene Rn.120914, defined direction +, rat liver, oral once daily 28 days
[4] = gene group (A), Unigene No. Rn.167075
[5] = gene group (C), Unigene No. Rn.120914

## CC(N)=O [TS067, Acetamide]
[1]; in vivo
  Carcinogenicity: C+
[2]; (A), Unigene Rn.144554, defined direction +, rat liver, oral once daily 28 days
  Behavior of gene caused by administration of chemical substance, Gene No. 4846: +
[2]; (A), Unigene Rn.167075, defined direction +, rat liver, oral once daily 28 days, significant = 1.5 times or more or 1/1.5 or less of control
  Behavior of gene caused by administration of chemical substance, Gene No. 4218: −
[2]; (A), Unigene Rn.167075, defined direction −, rat liver, oral once daily 28 days
  Behavior of gene caused by administration of chemical substance, Gene No. 2026: +
[2]; (A), Unigene Rn.5834, defined direction +, rat liver, oral once daily 28 days
  Behavior of gene caused by administration of chemical substance, Gene No. 6182: −
[2]; (A), Unigene Rn.9836, defined direction +, rat liver, oral once daily 28 days
  Behavior of gene caused by administration of chemical substance, Gene No. 5600: −
[2]; (B), Unigene Rn.1430, defined direction −, rat liver, oral once daily 28 days
  Behavior of gene caused by administration of chemical substance, Gene No. 1494: −
[2]; (B), Unigene Rn.19329, defined direction +, rat liver, oral once daily 28 days
  Behavior of gene caused by administration of chemical substance, Gene No. 2045: −
[2]; (B), Unigene Rn.21240, defined direction +, rat liver, oral once daily 28 days
  Behavior of gene caused by administration of chemical substance, Gene No. 2203: −
[2]; (C), Unigene Rn.106184, defined direction +, rat liver, oral once daily 28 days
  Behavior of gene caused by administration of chemical substance, Gene No. 533: +
[2]; (C), Unigene Rn.108075, defined direction −, rat liver, oral once daily 28 days
  Behavior of gene caused by administration of chemical substance, Gene No. 725: −
[2]; (C), Unigene Rn.11766, defined direction +, rat liver, oral once daily 28 days
  Behavior of gene caused by administration of chemical substance, Gene No. 1163: −
[2]; (C), Unigene Rn.118529, defined direction −, rat liver, oral once daily 28 days
  Behavior of gene caused by administration of chemical substance, Gene No. 4973: −
[2]; (C), Unigene Rn.119024, defined direction −, rat liver, oral once daily 28 days
  Behavior of gene caused by administration of chemical substance, Gene No. 4095: −
[2]; [3]
  Behavior of gene caused by administration of chemical substance, Gene No. 1334: −
  Behavior of gene caused by administration of chemical substance, Gene No. 6620: −
[2]; (C), Unigene Rn.123063, defined direction −, rat liver, oral once daily 28 days
  Behavior of gene caused by administration of chemical substance, Gene No. 6303: +
[2]; (C), Unigene Rn.143213, defined direction −, rat liver, oral once daily 28 days
  Behavior of gene caused by administration of chemical substance, Gene No. 5878: −
[2]; (C), Unigene Rn.144946, defined direction −, rat liver, oral once daily 28 days
  Behavior of gene caused by administration of chemical substance, Gene No. 1131: −
[2]; (C), Unigene Rn.14744, defined direction −, rat liver, oral once daily 28 days
  Behavior of gene caused by administration of chemical substance, Gene No. 1562: −
[2]; (C), Unigene Rn.1647, defined direction −, rat liver, oral once daily 28 days
  Behavior of gene caused by administration of chemical substance, Gene No. 1741: −
[2]; (C), Unigene Rn.164817, defined direction +, rat liver, oral once daily 28 days
  Behavior of gene caused by administration of chemical substance, Gene No. 893: −
[2]; (C), Unigene Rn.167685, defined direction −, rat liver, oral once daily 28 days
  Behavior of gene caused by administration of chemical substance, Gene No. 6026: −
[2]; (C), Unigene Rn.185941, defined direction −, rat liver, oral once daily 28 days
  Behavior of gene caused by administration of chemical substance, Gene No. 154: +
[2]; (C), Unigene Rn.18728, defined direction −, rat liver, oral once daily 28 days
  Behavior of gene caused by administration of chemical substance, Gene No. 1993: −
[2]; (C), Unigene Rn.201760, defined direction +, rat liver, oral once daily 28 days
  Behavior of gene caused by administration of chemical substance, Gene No. 813: −
[2]; (C), Unigene Rn.23969, defined direction +, rat liver, oral once daily 28 days
  Behavior of gene caused by administration of chemical substance, Gene No. 2494: −
[2]; (C), Unigene Rn.24561, defined direction −, rat liver, oral once daily 28 days
  Behavior of gene caused by administration of chemical substance, Gene No. 2546: −
[2]; (C), Unigene Rn.43232, defined direction −, rat liver, oral once daily 28 days
  Behavior of gene caused by administration of chemical substance, Gene No. 3776: −
[2]; (C), Unigene Rn.4620, defined direction +, rat liver, oral once daily 28 days
  Behavior of gene caused by administration of chemical substance, Gene No. 3929: −
[2]; (C), Unigene Rn.9757, defined direction +, rat liver, oral once daily 28 days
  Behavior of gene caused by administration of chemical substance, Gene No. 1119: −
[2]; (C), Unigene Rn.9779, defined direction +, rat liver, oral once daily 28 days
  Behavior of gene caused by administration of chemical substance, Gene No. 6742: −
[2]; (C), Unigene Rn.9862, defined direction −, rat liver, oral once daily 28 days
  Behavior of gene caused by administration of chemical substance, Gene No. 5634: −
[2]; (D), Unigene Rn.9939, defined direction −, rat liver, oral once daily 28 days
  Behavior of gene caused by administration of chemical substance, Gene No. 5726: −

## O=C(c1ccccc1)C(O)c1ccccc1 (centres unmarked) [TS038, Benzoin]
[1]; classification of the substance (C+/C−)
  Carcinogenicity: C−
[2]; gene group (A), Unigene No. Rn.144554
  Behavior of gene caused by administration of chemical substance, Gene No. 4846: −
[2]; [4]
  Behavior of gene caused by administration of chemical substance, Gene No. 2026: +
  Behavior of gene caused by administration of chemical substance, Gene No. 4218: −
[2]; gene group (A), Unigene No. Rn.5834
  Behavior of gene caused by administration of chemical substance, Gene No. 6182: −
[2]; gene group (A), Unigene No. Rn.9836
  Behavior of gene caused by administration of chemical substance, Gene No. 5600: −
[2]; gene group (B), Unigene No. Rn.1430
  Behavior of gene caused by administration of chemical substance, Gene No. 1494: −
[2]; gene group (B), Unigene No. Rn.19329
  Behavior of gene caused by administration of chemical substance, Gene No. 2045: −
[2]; gene group (B), Unigene No. Rn.21240
  Behavior of gene caused by administration of chemical substance, Gene No. 2203: −
[2]; gene group (C), Unigene No. Rn.106184
  Behavior of gene caused by administration of chemical substance, Gene No. 533: −
[2]; gene group (C), Unigene No. Rn.108075
  Behavior of gene caused by administration of chemical substance, Gene No. 725: −
[2]; gene group (C), Unigene No. Rn.11766
  Behavior of gene caused by administration of chemical substance, Gene No. 1163: −
[2]; gene group (C), Unigene No. Rn.118529
  Behavior of gene caused by administration of chemical substance, Gene No. 4973: +
[2]; gene group (C), Unigene No. Rn.119024
  Behavior of gene caused by administration of chemical substance, Gene No. 4095: +
[2]; [5]
  Behavior of gene caused by administration of chemical substance, Gene No. 1334: −
  Behavior of gene caused by administration of chemical substance, Gene No. 6620: −
[2]; gene group (C), Unigene No. Rn.123063
  Behavior of gene caused by administration of chemical substance, Gene No. 6303: +
[2]; gene group (C), Unigene No. Rn.143213
  Behavior of gene caused by administration of chemical substance, Gene No. 5878: −
[2]; gene group (C), Unigene No. Rn.144946
  Behavior of gene caused by administration of chemical substance, Gene No. 1131: −
[2]; gene group (C), Unigene No. Rn.14744
  Behavior of gene caused by administration of chemical substance, Gene No. 1562: −
[2]; gene group (C), Unigene No. Rn.1647
  Behavior of gene caused by administration of chemical substance, Gene No. 1741: −
[2]; gene group (C), Unigene No. Rn.164817
  Behavior of gene caused by administration of chemical substance, Gene No. 893: −
[2]; gene group (C), Unigene No. Rn.167685
  Behavior of gene caused by administration of chemical substance, Gene No. 6026: +
[2]; gene group (C), Unigene No. Rn.185941
  Behavior of gene caused by administration of chemical substance, Gene No. 154: +
[2]; gene group (C), Unigene No. Rn.18728
  Behavior of gene caused by administration of chemical substance, Gene No. 1993: +
[2]; gene group (C), Unigene No. Rn.201760
  Behavior of gene caused by administration of chemical substance, Gene No. 813: −
[2]; gene group (C), Unigene No. Rn.23969
  Behavior of gene caused by administration of chemical substance, Gene No. 2494: −
[2]; gene group (C), Unigene No. Rn.24561
  Behavior of gene caused by administration of chemical substance, Gene No. 2546: +
[2]; gene group (C), Unigene No. Rn.43232
  Behavior of gene caused by administration of chemical substance, Gene No. 3776: −
[2]; gene group (C), Unigene No. Rn.4620
  Behavior of gene caused by administration of chemical substance, Gene No. 3929: −
[2]; gene group (C), Unigene No. Rn.9757
  Behavior of gene caused by administration of chemical substance, Gene No. 1119: +
[2]; gene group (C), Unigene No. Rn.9779
  Behavior of gene caused by administration of chemical substance, Gene No. 6742: −
[2]; gene group (C), Unigene No. Rn.9862
  Behavior of gene caused by administration of chemical substance, Gene No. 5634: +
[2]; gene group (D), Unigene No. Rn.9939
  Behavior of gene caused by administration of chemical substance, Gene No. 5726: −
